Measurements as given in PMC10525570, “Antiviral Activity of Anthranilamide Peptidomimetics against Herpes Simplex Virus 1 and a Coronavirus” (Antibiotics, 2023).
Entries after “also recorded” stand apart in the source; their conditions may differ. Read-outs that look alike come from different tables or passages of the source.

What was measured:
[1] = test system: HSV-1; assay: Virus pre-treatment (direct virus inactivation) plaque assay, HSV-1; format: cell-based, herpes simplex virus 1
Experimental: (§1) The peptidomimetics were evaluated for their antiviral activity using three different assays: virus pre-treatment, cell pre-treatment, and post-treatment assays, with the main distinction being the timing of the compound addition. Cells were seeded in 24-well plates at a density of 2.5 × 10^5 cells/well and incubated for 48 h at 37 °C. In all assays, the compounds were added to DMEM medium in the absence of fetal bovine serum (FBS). All experiments were performed in duplicate with two independent replicates. The inhibitory effect on viral infectivity was determined by comparing the number of plaques in wells treated with the test compounds (peptidomimetics) to the plaques observed in the control wells (cells infected with the virus without test compounds).
(§2) Virus pre-treatment assay: In this assay, the test compounds were added to the virus (1 × 10^3 PFU/mL) and incubated for 3 h at 37 °C. After incubation, each mixture (virus/peptide) was diluted in DMEM medium containing 10% FBS to neutralize the peptides or mimics. The dilutions were then added to the cell monolayers for 1 h, followed by the addition of an agar overlay containing 1% agar. The cells were further incubated for 72 h, after which they were fixed, stained, and the number of plaques was counted.

[2] = test system: MHV-1; assay: Virus pre-treatment (direct virus inactivation) plaque assay, MHV-1; format: cell-based, Murine hepatitis virus 1; conditions: for Plaque formation, MHV-1: quadruplicate
Experimental: as §1, §2

[3] = MTT cytotoxicity assay, Vero cells; format: cell-based; conditions: African green monkey, read-out: HSV-1 (Vero Cells) CC50
Experimental: (§3) The MTT assay was used to assess the cytotoxicity of compounds against the viral host (A9 and Vero) cells. This assay relies on the reduction of the yellow MTT compound to a dark blue formazan product by viable and metabolically active cells. Viral host cells were cultured in 96-well plates and incubated at 37 °C in a 5% CO2 atmosphere, treated with various concentrations of the test compounds together with further incubation for 24 h. After incubation, 100 μL of a 5 mg/mL MTT solution was added to each well and incubated for 2–4 h at 37 °C. The supernatant was then discarded, and 100 μL of 100% DMSO was added to dissolve the formazan salts with vigorous agitation for 10 min at room temperature. The absorbance at 540 nm was measured using a spectrophotometer. Cytotoxicity was determined by comparing the absorbance values in the test and control wells expressed as a percentage. A total of 100 μL DMSO was used for negative control (ctr−), while 100 μL of culture medium represented the positive control (ctr+). All experiments were repeated three times, and the mean values with standard deviations are reported. Nonlinear regression analysis was performed using GraphPad Prism software to determine the CC50 (concentration at which 50% of cells are killed).

[4] = test system: MHV-1; assay: Transmission electron microscopy of treated MHV-1; set-up: species or system Murine hepatitis virus 1; conditions: virus treated at 37 °C for 2 h
Experimental: (§4) The viruses were treated with compound 11 for MHV-1 and 14 for HSV-1, both at 37 °C for 2 h. Subsequently, 10 µL of the treated mixture was placed on a glow-discharged carbon-coated 200 mesh copper grid and allowed to evaporate for 5 min. The sample was then stained with 1% phosphotungstic acid (pH 6.5) for 30 s to improve the contrast. After air-drying, the grids were examined using an FEI Tecnai G2 20 TEM machine.

[5] = test system: MHV-1; assay: Cell pre-treatment plaque assay, MHV-1 on A9 cells; format: cell-based, Murine hepatitis virus 1; conditions: A9 cells preincubated 24 h with 15.625, 7.5, 3.75 µM before infection
Experimental: (§5) In order to explore additional potential mechanisms, the ability of compounds 11 and 14 to reduce the ability of the two viruses to bind to their respective mammalian host cells was examined. Three concentrations (15.625 µM, 7.5 µM, and 3.75 µM) of compounds 11 and 14, all below their cytotoxic thresholds, were allowed to interact with A9 and Vero cells for 24-h before virus infection. The impact of these interactions was assessed using a plaque assay to determine inhibitory effects.
as §1, with “All experiments were performed in duplicate with two independent replicates.” left out
(§6) Cell pre-treatment assay: The cells were treated with the test compounds and incubated for 24 h at 37 °C. […] The cells were then fixed, stained, and the number of plaques was determined.

[6] = test system: HSV-1; assay: Post-viral infection plaque assay, HSV-1 on Vero cells; format: cell-based, herpes simplex virus 1; conditions: compound added 3 h post-infection, 15.625, 7.5, 3.75 µM
Experimental: (§7) In order to determine if compounds 11 and 14 were able to inhibit aspects of viral infection after the initial binding stage to host mammalian cells, the same concentrations of the compounds were administered to the cells after a 3-h interval post-infection.
as §1
(§8) Post-viral infection assay: The cells were first incubated with viruses (1 × 10^3 PFU/mL) for 3 h at 37 °C to ensure complete cellular entry. Following that, the test compounds were added and incubated for 24 h at 37 °C. […] The cells were then fixed, stained, and the number of plaques was determined.

[7] = MTT cytotoxicity assay, A9 cells; format: cell-based; conditions: mouse, read-out: MHV-1 (A9 Cells) CC50
Experimental: as §3

[8] = test system: MHV-1; assay: Post-viral infection plaque assay, MHV-1 on A9 cells; format: cell-based, Murine hepatitis virus 1; conditions: compound added 3 h post-infection, 15.625, 7.5, 3.75 µM
Experimental: as §7, §1, §8

[9] = test system: HSV-1; assay: Cell pre-treatment plaque assay, HSV-1 on Vero cells; format: cell-based, herpes simplex virus 1; conditions: Vero cells preincubated 24 h with 15.625, 7.5, 3.75 µM before infection
Experimental: as §5
as §1, with “All experiments were performed in duplicate with two independent replicates.” left out
as §6

[10] = test system: HSV-1; assay: Transmission electron microscopy of treated HSV-1; set-up: species or system herpes simplex virus 1; conditions: virus treated at 37 °C for 2 h
Experimental: as §4

[11] = Human alphaherpesvirus 1, virus pre-treatment 3 h at 37 °C, plaque assay, read-out: HSV-1 IC50
[12] = Murine coronavirus, virus pre-treatment 3 h at 37 °C, plaque assay, read-out: MHV-1 IC50
[13] = Human alphaherpesvirus 1, Table 2, Vero cells, read-out: HSV-1 (Vero Cells) IC50
[14] = Murine coronavirus, Table 2, A9 cells, read-out: MHV-1 (A9 Cells) IC50

Compound | IC50 [1, 11] [µM] | IC50 [2, 12] [µM] | IC50 [1, 13] [µM] | IC50 [2, 14] [µM] | also measured
NCCNC(=O)C(Cc1c[nH]c2ccccc12)NC(=O)c1ccccc1NC(=O)c1ccc2ccccc2c1 (stereo not shown) [Compound 1] | > 62.5 | > 62.5 |  |  | 
NCCNC(=O)C(Cc1c[nH]c2ccccc12)NC(=O)c1cc(Br)ccc1NC(=O)c1ccc2ccccc2c1 (stereo not shown) [Compound 2] | > 62.5 | > 62.5 |  |  | 
NCCNC(=O)C(Cc1c[nH]c2ccccc12)NC(=O)c1cc(F)ccc1NC(=O)c1ccc2ccccc2c1 (stereo not shown) [Compound 3] | > 62.5 | > 62.5 |  |  | 
NCCNC(=O)C(Cc1c[nH]c2ccccc12)NC(=O)c1cc(Cl)ccc1NC(=O)c1ccc2ccccc2c1 (stereo not shown) [Compound 4] | > 62.5 | > 62.5 |  |  | 
COc1ccc(NC(=O)c2ccc3ccccc3c2)c(C(=O)NC(Cc2c[nH]c3ccccc23)C(=O)NCCN)c1 (stereo not shown) [Compound 5] | > 62.5 | > 62.5 |  |  | 
N=C(N)NCCNC(=O)C(Cc1c[nH]c2ccccc12)NC(=O)c1ccccc1NC(=O)c1ccc2ccccc2c1 (stereo not shown) [Compound 6] | > 62.5 | > 62.5 |  |  | 
N=C(N)NCCNC(=O)C(Cc1c[nH]c2ccccc12)NC(=O)c1cc(Br)ccc1NC(=O)c1ccc2ccccc2c1 (stereo not shown) [Compound 7] | 32.7 | > 62.5 | 32.8 | > 62.5 | CC50 at 24 h [3]: 127 µM
N=C(N)NCCNC(=O)C(Cc1c[nH]c2ccccc12)NC(=O)c1cc(F)ccc1NC(=O)c1ccc2ccccc2c1 (stereo not shown) [Compound 8] | > 62.5 | > 62.5 |  |  | 
N=C(N)NCCNC(=O)C(Cc1c[nH]c2ccccc12)NC(=O)c1cc(Cl)ccc1NC(=O)c1ccc2ccccc2c1 (stereo not shown) [Compound 9] | 14.8 | > 62.5 | 14.9 | > 62.5 | CC50 at 24 h [3]: 45 µM
COc1ccc(NC(=O)c2ccc3ccccc3c2)c(C(=O)NC(Cc2c[nH]c3ccccc23)C(=O)NCCNC(=N)N)c1 (stereo not shown) [Compound 10] | > 62.5 | > 62.5 |  |  | 
NCCNC(=O)C(Cc1c[nH]c2ccccc12)NC(=O)c1cc(-c2ccc3ccccc3c2)ccc1N (stereo not shown) [Compound 11] |  |  | 34.9 | 2.18 | Effect on MHV-1 viral envelope (TEM) [4]: disrupted viral envelope; also recorded: complete disruption of the viral envelope; Inhibition of MHV-1 infection, cell pre-treatment [5]: none of the compounds could inhibit virus infection; also recorded: Neither of the compounds was able to affect viral replication; IC50 ([1]; Human alphaherpesvirus 1, read-out: HSV-1 IC50): 34.9 µM; Plaque formation, MHV-1 ([2]; MHV-1 treated with 31.25 µM): complete inhibition of plaque formation; Plaque formation, MHV-1 ([2]; MHV-1 treated with 62.5 µM): complete inhibition of plaque formation; IC50 ([2]; Murine coronavirus, read-out: MHV-1 IC50): 2.38 µM; inhibition at 2.18 µM ([2]; Murine coronavirus, at 2.18 µM): > 50%; Antiviral activity against HSV-1, post-infection treatment [6]: no noticeable antiviral activity; also recorded: Neither of the compounds was able to affect viral replication; CC50 at 24 h [3]: 16.7 µM; CC50 at 24 h [7]: 20.5 µM; Antiviral activity against MHV-1, post-infection treatment [8]: no noticeable antiviral activity; also recorded: Neither of the compounds was able to affect viral replication; Inhibition of HSV-1 infection, cell pre-treatment [9]: none of the compounds could inhibit virus infection; also recorded: Neither of the compounds was able to affect viral replication
NCCNC(=O)C(Cc1c[nH]c2ccccc12)NC(=O)c1cc(-c2ccc(-c3ccccc3)cc2)ccc1N (stereo not shown) [Compound 12] | > 62.5 | > 62.5 |  |  | 
COc1ncc(-c2ccc(N)c(C(=O)NC(Cc3c[nH]c4ccccc34)C(=O)NCCN)c2)c(OC)n1 (stereo not shown) [Compound 13] | > 62.5 | > 62.5 |  |  | 
NCCNC(=O)C(Cc1c[nH]c2ccccc12)NC(=O)c1cc(-c2ccccc2-c2ccccc2)ccc1N (stereo not shown) [Compound 14] | 13 | 6.3 | 13 | 6.3 | Inhibition of MHV-1 infection, cell pre-treatment [5]: none of the compounds could inhibit virus infection; also recorded: Neither of the compounds was able to affect viral replication; Effect on HSV-1 viral envelope (TEM) [10]: partial disruption of the HSV-1 envelope; also recorded: partial destruction of the HSV-1 envelope; Plaque formation, HSV-1 ([1]; HSV-1 treated with 31.25 µM): complete inhibition of plaque formation; Plaque formation, HSV-1 ([1]; HSV-1 treated with 62.5 µM, four replicates): complete inhibition of plaque formation; inhibition at 13 µM ([1]; Human alphaherpesvirus 1, at 13 µM): > 50%; Antiviral activity against HSV-1, post-infection treatment [6]: no noticeable antiviral activity; also recorded: Neither of the compounds was able to affect viral replication; CC50 at 24 h [3]: 15.2 µM; CC50 at 24 h [7]: 10.2 µM; Antiviral activity against MHV-1, post-infection treatment [8]: no noticeable antiviral activity; also recorded: Neither of the compounds was able to affect viral replication; Inhibition of HSV-1 infection, cell pre-treatment [9]: none of the compounds could inhibit virus infection; also recorded: Neither of the compounds was able to affect viral replication
NCCCCC(N)C(=O)NCCNC(=O)C(Cc1c[nH]c2ccccc12)NC(=O)c1cc(Br)ccc1NC(=O)c1ccc2ccccc2c1 (stereo not shown) [Compound 15] | > 62.5 | 11.1 | > 62.5 | 11.1 | CC50 at 24 h [7]: 62.7 µM
NCCCCC(N)C(=O)NCCNC(=O)C(Cc1c[nH]c2ccccc12)NC(=O)c1cc(Br)ccc1NC(=O)c1ccc(-c2ccccc2)cc1 (stereo not shown) [Compound 16] | > 62.5 | 22.5 | > 62.5 | 22.6 | CC50 at 24 h [7]: 81.6 µM
NCCCCC(N)C(=O)NCCNC(=O)C(Cc1c[nH]c2ccccc12)NC(=O)c1cc(Br)ccc1NC(=O)c1cccc(-c2ccccc2)c1 (stereo not shown) [Compound 17] | > 62.5 | 11.8 | > 62.5 | 11.8 | CC50 at 24 h [7]: 114 µM
